For data set [1], the target named is CSF1R (Homo sapiens, UniProt P07333). As to the kind of experiment: CSF1R enzymatic inhibitory assay (TR-FRET LANCE Ultra). The note with it: single eight-point titrations, ATP 25 μM, R^2 of fit in parentheses. The format is biochemical. Here is the method:
The TR-FRET-based LANCE Ultra assay (Perkin Elmer, Waltham, MA, USA) was used to determine IC50 values for various CSF1R inhibitors. Kinase activity and inhibition in this assay was measured as previously reported. Scigilian Analyze software version 5.8.5.15 (Scigilian, Montreal, QC, Canada) was used.
In general terms: In TR-FRET formats the signal depends on donor and acceptor labels being close together.

The target of data set [2] is cKIT (Homo sapiens, UniProt P10721). As to the kind of experiment: KIT-WT LanthaScreen binding assay (Kd). To be noted: single eight-point titrations, TR-FRET LanthaScreen Binding Assay; R^2 of fit in parentheses; read-out: Enzymatic Assay KIT (Kd). Here is the method: The TR-FRET-based LanthaScreen Binding Assay was performed to determine Kd values of synthesized derivatives against cKIT.
Subsequently, 8 µL of kinase anti-GST antibody mixture was added, followed by incubation at 4 °C for 30 min in a pre-cooled, humidified box to minimize edge effects. The reaction was initiated by adding 5 µL of tracer working solution and mixed on a Bioshake 5000 microplate shaker (Q Instruments, Jena, Germany). […] Kd values were calculated from sigmoidal dose-response curves using Scigilian Analyze software version 5.8.5.15 (Scigilian, Montreal, QC, Canada).

Data set [3] deals with Ba/F3 cells engineered to be dependent on CSF1R. As to the kind of experiment: Cell viability assay with Ba/F3-hCSF1R cells. In kind it is cell-based. The note with it: for IC50: Mus musculus, BaF3, Ba/F3 cells dependent on CSF1R, with standard deviation, read-out: Cellular Assay IC50 (μM), Ba/F3 CSF1R. On the procedure:
(§1) Given the promising enzymatic activity of the synthesized derivatives, cellular assays were performed using Ba/F3 cells engineered to depend on constitutively active CSF1R. […] We have also previously observed a low correlation between enzymatic and cellular activities, which may arise from the enzymatic protein construct not accurately mimicking the active conformation of CSF1R in a cellular context.
(§2) Performed as reported previously.

Data set [4] has as its system Ba/F3 cells engineered to be dependent on CSF1R but added additional IL-3. As to the kind of experiment: Cell viability assay with Ba/F3-hCSF1R cells with added IL-3. The format is cell-based. To be noted: Mus musculus, BaF3; Ba/F3 CSF1R cells with additional IL-3; read-out: Cellular Assay IC50 (μM), Ba/F3 IL-3. On the procedure:
as §1, §2

Data set [5] can be described thus: Kinetic solubility. In kind it is physicochemical. To be noted: aqueous buffer, kinetic from dmso stock; spectrophotometric, pH 7.4 in HEPES buffer. Here is the method:
(§3) The aqueous solubility of the compounds and metabolic stability under oxidative conditions was performed as described previously.

A short description of data set [6]: Microsomal stability, mouse liver microsomes. The format is in vitro ADME. The note with it: mouse liver microsome. On the procedure: as §3
In general terms: Microsomes from liver hold many membrane-bound enzymes, among them those of drug oxidation.

Data set [7] in a line: MDCK permeability assay. In kind it is in vitro ADME, canine. To be noted: dog, MDCK monolayer; for Papp A→B: A–B direction; for Papp B→A: B–A direction; for efflux ratio: read-out: MDCK Ratio (Papp B–A/A–B). Here is the method:
Six selected compounds were assessed for metabolic stability (clearance) in mouse liver microsomes (MLM) and human liver microsomes (HLM), and apparent permeability (Papp) using a MDCK permeability assay. […] Although currently limited by solubility and permeability, its metabolic profile provides a starting point for targeted structural modifications aimed at overcoming these challenges.

≈ marks a conversion by molar mass, not a printed value.

By Kd is commonly meant the free concentration of one partner at which half of the binding sites on the other are occupied at equilibrium, for simple one-to-one binding. The term kinetic solubility denotes solubility judged after dilution from a stock solution rather than from solid. A word on the Papp A→B: it is the apparent permeability from the apical to the basolateral side of a cell layer. High values mean fast passage, low ones slow passage. The Papp B→A is how fast a substance crosses the layer from the basolateral side.

Sequence of CSF1R (P07333 20-972): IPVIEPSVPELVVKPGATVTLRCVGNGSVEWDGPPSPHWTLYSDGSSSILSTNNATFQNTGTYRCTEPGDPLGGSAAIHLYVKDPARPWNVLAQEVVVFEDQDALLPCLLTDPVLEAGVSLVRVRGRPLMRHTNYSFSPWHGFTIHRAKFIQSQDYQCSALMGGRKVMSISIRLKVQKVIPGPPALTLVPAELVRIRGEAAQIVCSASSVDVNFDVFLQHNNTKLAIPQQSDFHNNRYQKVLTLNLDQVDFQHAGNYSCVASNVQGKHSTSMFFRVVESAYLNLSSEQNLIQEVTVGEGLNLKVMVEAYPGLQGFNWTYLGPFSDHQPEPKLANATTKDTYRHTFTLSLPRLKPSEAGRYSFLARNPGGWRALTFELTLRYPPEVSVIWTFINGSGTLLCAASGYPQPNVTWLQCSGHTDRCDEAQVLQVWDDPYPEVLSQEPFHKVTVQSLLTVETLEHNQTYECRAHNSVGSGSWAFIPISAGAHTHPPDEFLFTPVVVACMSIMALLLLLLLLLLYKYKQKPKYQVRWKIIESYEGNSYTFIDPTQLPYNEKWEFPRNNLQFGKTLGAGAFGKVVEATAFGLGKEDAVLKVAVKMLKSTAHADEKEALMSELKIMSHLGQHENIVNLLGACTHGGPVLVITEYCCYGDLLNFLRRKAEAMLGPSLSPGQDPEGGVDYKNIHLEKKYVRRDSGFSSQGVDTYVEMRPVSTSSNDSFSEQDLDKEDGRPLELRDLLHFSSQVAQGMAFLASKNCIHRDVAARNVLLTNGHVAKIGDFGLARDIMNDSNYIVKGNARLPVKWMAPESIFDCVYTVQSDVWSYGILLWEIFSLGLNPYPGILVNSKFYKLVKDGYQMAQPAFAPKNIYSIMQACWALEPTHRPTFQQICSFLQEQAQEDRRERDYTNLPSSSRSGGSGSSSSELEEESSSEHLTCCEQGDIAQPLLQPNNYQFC
Sequence of cKIT (P10721 26-976): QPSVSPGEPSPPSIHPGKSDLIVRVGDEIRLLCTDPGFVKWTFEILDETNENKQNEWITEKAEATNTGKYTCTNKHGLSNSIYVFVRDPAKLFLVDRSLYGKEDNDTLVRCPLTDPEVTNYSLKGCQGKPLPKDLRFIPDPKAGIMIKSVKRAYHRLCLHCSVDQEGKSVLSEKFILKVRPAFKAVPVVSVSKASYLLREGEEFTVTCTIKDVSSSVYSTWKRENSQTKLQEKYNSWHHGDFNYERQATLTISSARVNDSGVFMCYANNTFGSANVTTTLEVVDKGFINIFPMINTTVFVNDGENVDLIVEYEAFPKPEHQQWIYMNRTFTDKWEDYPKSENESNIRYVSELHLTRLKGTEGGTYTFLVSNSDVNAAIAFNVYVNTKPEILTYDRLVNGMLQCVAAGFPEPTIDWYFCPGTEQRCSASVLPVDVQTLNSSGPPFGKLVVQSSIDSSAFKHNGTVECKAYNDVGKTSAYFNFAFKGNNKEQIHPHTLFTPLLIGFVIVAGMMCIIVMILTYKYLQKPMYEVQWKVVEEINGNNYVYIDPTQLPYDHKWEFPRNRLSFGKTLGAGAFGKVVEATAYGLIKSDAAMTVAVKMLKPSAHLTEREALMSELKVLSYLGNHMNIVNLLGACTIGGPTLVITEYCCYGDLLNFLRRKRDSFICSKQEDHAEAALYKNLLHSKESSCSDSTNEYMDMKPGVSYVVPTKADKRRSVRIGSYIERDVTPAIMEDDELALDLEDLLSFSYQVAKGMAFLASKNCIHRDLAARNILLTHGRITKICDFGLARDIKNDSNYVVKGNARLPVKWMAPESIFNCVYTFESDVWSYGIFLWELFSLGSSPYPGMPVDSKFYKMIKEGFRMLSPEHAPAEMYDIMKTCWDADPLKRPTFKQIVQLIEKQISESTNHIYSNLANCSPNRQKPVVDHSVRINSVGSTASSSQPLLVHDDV

For the molecule `CN(Cc1ccc(NCc2ccccc2)nc1)c1ncnc2[nH]ccc12` [Compound 4a, N-((6-(Benzylamino)pyridin-3-yl)methyl)-N-methyl-7H-pyrrolo[2,3-d]pyrimidin-4-amine], the IC50 in data set [1] was found to be 857 nM. Further, the equilibrium dissociation constant (Kd) in data set [2] was greater than 1000 nM. The “Cellular activity in Ba/F3 CSF1R cells (in words)” value in data set [3] (Ba/F3 cells dependent on constitutively active CSF1R) is reported as “relatively high cellular activity”. Further, in data set [3], the IC50 was 1.16 ± 0.22 µM. Moreover, the IC50 in data set [4] stood at 1.39 ± 0.4 µM. The same molecule returned a solubility (kinetic) in data set [5] of 20.9 µM (≈ 7.2 µg/mL). In addition, the “MLM in vitro intrinsic clearing” value in data set [6] came to 277.3 µL/min/mg. For the same molecule, in data set [7], the Papp A→B came to 34 ×10⁻⁶ cm/s, the Papp B→A was found to be 24.7 ×10⁻⁶ cm/s and the efflux ratio was 0.72.

Regarding `CN(Cc1ccc(NCc2ccccn2)nc1)c1ncnc2[nH]ccc12` [Compound 4b, N-Methyl-N-((6-((pyridin-2-ylmethyl)amino)pyridin-3-yl)methyl)-7H-pyrrolo[2,3-d]pyrimidin-4-amine], the IC50 in data set [1] was greater than 1000 nM; in data set [3], greater than 10 µM; in data set [4] it was greater than 10 µM. In addition, the Kd in data set [2] was greater than 1000 nM. In addition, the kinetic solubility in data set [5] turned out to be 441 µM (≈ 152 µg/mL). For the same molecule, the “MLM in vitro intrinsic clearing” value in data set [6] came out at 101.9 µL/min/mg. In addition, the Papp A→B in data set [7] is 42 ×10⁻⁶ cm/s. Also, the Papp B→A in data set [7] is 28.8 ×10⁻⁶ cm/s. Also, the efflux ratio in data set [7] came to 0.69.

Turning to `CN(Cc1ccc(NCc2ccc(C(F)(F)F)nc2)nc1)c1ncnc2[nH]ccc12` [Compound 4c, N-Methyl-N-((6-(((6-(trifluoromethyl)pyridin-3-yl)methyl)amino)pyridin-3-yl)methyl)-7H-pyrrolo[2,3-d]pyrimidin-4-amine], the IC50 in data set [1] was greater than 1000 nM. Moreover, the Kd in data set [2] was greater than 1000 nM. Also, in data set [3], the IC50 was 9.96 ± 0.02 µM. Moreover, the IC50 in data set [4] was greater than 10 µM. Besides, the solubility (kinetic) in data set [5] is 20.9 µM (≈ 8.64 µg/mL). In addition, the “MLM in vitro intrinsic clearing” value in data set [6] was 150.7 µL/min/mg. Moreover, in data set [7], the Papp A→B is 18.3 ×10⁻⁶ cm/s, the Papp B→A amounted to 10 ×10⁻⁶ cm/s and the efflux ratio was found to be 0.55.

For the molecule `Cc1cccc(CN(C)c2ncnc3[nH]cc(-c4ccc(NCc5cccnc5)nc4)c23)c1` [Compound 8, N-Methyl-N-(3-methylbenzyl)-5-(6-((pyridin-3-ylmethyl)amino)pyridin-3-yl)-7H-pyrrolo[2,3-d]pyrimidin-4-amine], the IC50 in data set [1] is greater than 1000 nM. For the same molecule, the Kd in data set [2] was 397 nM. The IC50 in data set [3] turned out to be 8.46 ± 0.89 µM. In data set [4], the IC50 was greater than 10 µM. The molecule also returned a kinetic solubility in data set [5] of 70.4 µM (≈ 30.7 µg/mL). For the same molecule, the “MLM in vitro intrinsic clearing” value in data set [6] came out at 1540.3 µL/min/mg. For the same molecule, in data set [7], the Papp A→B amounted to 15.9 ×10⁻⁶ cm/s, the basolateral-to-apical permeability (Papp B→A) was determined as 4.4 ×10⁻⁶ cm/s and the efflux ratio turned out to be 0.27.

As for `Cc1cccc(CN(C)c2ncnc3[nH]c(-c4ccc(NCc5cccc(C)c5C)nc4)cc23)c1` [Compound 12d, 6-(6-((2,3-Dimethylbenzyl)amino)pyridin-3-yl)-N-methyl-N-(3-methylbenzyl)-7H-pyrrolo[2,3-d]pyrimidin-4-amine], in data set [1], the IC50 is greater than 1000 nM. The Kd in data set [2] was greater than 1000 nM.

`COc1ccc(CNc2ccc(-c3cc4c(N(C)Cc5cccc(C)c5)ncnc4[nH]3)cn2)cc1` [Compound 12e, 6-(6-((4-Methoxybenzyl)amino)pyridin-3-yl)-N-methyl-N-(3-methylbenzyl)-7H-pyrrolo[2,3-d]pyrimidin-4-amine]: the IC50 was 10.5 nM in data set [1], 6.24 µM in data set [3] and 9.25 µM in data set [4]. For the same molecule, the Kd in data set [2] is greater than 1000 nM.

Consider `Cc1cccc(CN(C)c2ncnc3[nH]c(-c4ccc(NCc5ccccc5)nc4)cc23)c1` [Compound 14a, 6-(6-(Benzylamino)pyridin-3-yl)-N-methyl-N-(3-methylbenzyl)-7H-pyrrolo[2,3-d]pyrimidin-4-amine], for which, in data set [1], the IC50 was 6 nM. For the same molecule, the Kd in data set [2] is greater than 1000 nM.

For the molecule `FC(F)(F)c1ccc(CNc2ccc(Cc3c[nH]c4ncc(Cl)cc34)cn2)cn1` [Pexidartinib, reference compound], in data set [3], the IC50 was 0.064 ± 0.04 µM. Moreover, the IC50 in data set [4] was found to be 6.54 ± 0.61 µM. In addition, in data set [5], the kinetic solubility was 20.5 µM (≈ 8.57 µg/mL). Moreover, in data set [7], the apical-to-basolateral permeability (Papp A→B) amounted to 4.5 ×10⁻⁶ cm/s and the Papp B→A stood at 1.5 ×10⁻⁶ cm/s.

The record behind these values is PMC12196264, “Design and Synthesis of Pyridine-Based Pyrrolo[2,3-d]pyrimidine Analogs as CSF1R Inhibitors: Molecular Hybridization and Scaffold Hopping Approach” (Pharmaceuticals, 2025).
